{"source": "patent US10493131B2", "about": "“Materials and methods for modulating activity of bone marrow derived cells” (University of Florida Research Foundation, Incorporated, priority 2011, dated 2019)", "key": {"CD34+ BMDEC [1]": {"system": "CD34+ BMDEC", "assay": "Detection of nitric oxide (NO) produced by cells (DAF-FM fluorescence)", "assay_type": "cell-based, human", "settings": "pretreatment with MK2206 20 nM 30 minutes; 50 ng/ml rhRLX", "protocol": "Isolation of CD34+ BMDEC. The study protocol was approved by the Institutional Review Board of the University of Florida, and written informed consent was obtained from each subject. Blood was collected from healthy controls by routine venipuncture into CPT™ Tubes with heparin (BD Biosciences, Franklin Lakes, N.J.), centrifuged at room temperature in a swinging bucket rotor for 20 minutes at 1800 RCF, the peripheral blood mononuclear cells (PBMCs) diluted with phosphate buffered saline supplemented with 2 mM EDTA (PBSE) and centrifuged for 10 minutes at 300 RCF. After washing the cell pellet, centrifugation was repeated. […]\nDetection of Nitric Oxide (NO) produced by cells. […] Bioavailable NO was determined as previously described (Shah, R., Beem, E., Sautina, L., Zharikov, S. I., and Segal, M. S. 2007. Mitomycin- and calcineurin-associated HUS, endothelial dysfunction and endothelial repair: a new paradigm for the puzzle? Nephrol Dial Transplant 22:617-620). […] DAF-FM fluorescence increases by about 160-fold when it reacts with NO. Green fluorescence was measured using the inverted fluorescent Carl Zeiss Axiovert 200M microscope equipped with a CCD camera and Slidebook software (v.4.1; Intelligent Imaging Innovations, Inc. Denver, Colo.). Fluorescence intensity was measured in 20-30 cells per field in at least 6 fields per well. […]"}, "CD34+ BMDEC [2]": {"system": "CD34+ BMDEC", "assay": "SDF-1/Relaxin induced chemotaxis (Boyden chamber)", "assay_type": "cell-based, human", "settings": "10 μM L-NAME", "protocol": "Isolation of CD34+ BMDEC. The study protocol was approved by the Institutional Review Board of the University of Florida, and written informed consent was obtained from each subject. Blood was collected from healthy controls by routine venipuncture into CPT™ Tubes with heparin (BD Biosciences, Franklin Lakes, N.J.), centrifuged at room temperature in a swinging bucket rotor for 20 minutes at 1800 RCF, the peripheral blood mononuclear cells (PBMCs) diluted with phosphate buffered saline supplemented with 2 mM EDTA (PBSE) and centrifuged for 10 minutes at 300 RCF. After washing the cell pellet, centrifugation was repeated. 3.3×10^7 PBMCs were resuspended in 100 μl of PBSE to which 33 μl of FcR blocking reagent (Miltenyi Biotec Inc., Auburn, Calif.) and 33 μl of magnetic microbeads conjugated with an anti-CD34 antibody was added. After incubation for 30 minutes at 4° C., the cells were diluted in 10× the volume of PBSE supplemented with 0.1% bovine serum albumin. The CD34+ BMDEC were positively selected using an automated magnetic selection autoMACS™ (Miltenyi Biotec Inc., Auburn, Calif.). […] After 4.5 hours at 5% CO2 at 37° C., the percentage of cells that migrated was determined by collecting the media in the lower chamber and determining the relative fluorescence using a Synergy™ HT (Bio-Tek Instruments, Inc., Winooski, Vt.) with an excitation of 485±20 and an emission of 528±20 nm. […]"}}, "data": [{"compound": "NC1(c2ccc(-c3nc4ccn5c(=O)[nH]nc5c4cc3-c3ccccc3)cc2)CCC1", "note": "[MK2206]", "values": [{"measurement": "effect on rhRLX stimulation of NO", "setting": "CD34+ BMDEC [1]", "result": "prevented"}]}, {"compound": "COC(=O)[C@@H](N)CCCNC(=N)N[N+](=O)[O-]", "note": "[L-NAME, L—N^G-nitroarginine methy ester]", "values": [{"measurement": "effect on basal level of migration", "setting": "CD34+ BMDEC [2]", "result": "unaffected"}, {"measurement": "effect on relaxin-stimulated chemotaxis", "setting": "CD34+ BMDEC [2]; 50 ng/ml rhRLX", "result": "blocked"}]}]}
